Reference: US7014990B2, “Machine perfusion solution for organ and biological tissue preservation” (priority 2000, dated 2006)

Assay type: physicochemical
Description: A machine perfusion solution of the invention may be prepared by combining the components described above with sterile water, such as distilled and/or deionized water. For example, to prepare the solution, approximately 700–900 mL, or preferably about 800 mL, of sterile water is poured into a one liter beaker at approximately room temperature. Although a one liter beaker is used in this example, any other container of any size may be used to prepare the solution, where the component amounts would be adjusted accordingly. In the most preferred embodiment, the following are added, in any order, to the solution and each is mixed until dissolved in the solution: approximately […] sodium gluconate, approximately […] potassium phosphate, approximately […] adenine, approximately […] of ribose, approximately […] of calcium chloride, and approximately 50 g modified pentastarch. The modified pentastarch is a fractionated colloid mixture of 40–60 kDaltons in diameter and is modified by infusing the pentastarch under 3 atm of pressure through a dialyzing filter with a bore size of about 40–60 kDaltons. About […] magnesium gluconate, approximately […] HEPES, approximately […] glucose, and approximately […] mannitol are also added, in any order, and mixed. Approximately 40 U of insulin is also added. […]

For `CCCCC[C@H](O)/C=C/[C@H]1[C@H](O)CC(=O)[C@@H]1CCCCCCC(=O)O` [modified PGE1, prostaglandin E1], the “half-life lengthened by a multiple” value was “about 15”.
